Source: PubChem BioAssay AID1963977 (Molecular Pharmacology Branch, DTP, NCI, 2024)
pIC50: −log10 of the molar value.

Test system: 624824-186-R-J3-PDC multicell spheroids, viability
Assay: Anticancer human tumor 624824-186-R-J3-PDC patient-derived colon adenocarcinoma cell line growth inhibition [PI3K]
Conditions: for pIC50: curve of first compound; for viability, T/C: stronger effect = lower value; active = viability on the fitted dose curve at most 10% of control; inactive = the rest
Outline: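 Tumor cells were combined with HUVEC and MSCs into spheroids, then dosed with PI3K-inhibitor combinations over half-log ranges capped near clinical Cmax or 10 microM.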

[1] = second compound 0.0316 µM, first compound 0.000316 µM
[2] = second compound 0.0316 µM, first compound 0.001 µM
[3] = second compound 0.0316 µM, first compound 0.00316 µM
[4] = second compound 0.0316 µM, first compound 0.01 µM
[5] = second compound 0.0316 µM, first compound 0.0316 µM
[6] = second compound 0.0316 µM, first compound 0.1 µM
[7] = second compound 0.1 µM, first compound 0.000316 µM
[8] = second compound 0.1 µM, first compound 0.001 µM
[9] = second compound 0.1 µM, first compound 0.00316 µM
[10] = second compound 0.1 µM, first compound 0.01 µM
[11] = second compound 0.1 µM, first compound 0.0316 µM
[12] = second compound 0.1 µM, first compound 0.1 µM
[13] = second compound 0.316 µM, first compound 0.000316 µM
[14] = second compound 0.316 µM, first compound 0.001 µM
[15] = second compound 0.316 µM, first compound 0.00316 µM
[16] = second compound 0.316 µM, first compound 0.01 µM
[17] = second compound 0.316 µM, first compound 0.0316 µM
[18] = second compound 0.316 µM, first compound 0.1 µM
[19] = second compound 1 µM, first compound 0.000316 µM
[20] = second compound 1 µM, first compound 0.001 µM
[21] = second compound 1 µM, first compound 0.00316 µM
[22] = second compound 1 µM, first compound 0.01 µM
[23] = second compound 1 µM, first compound 0.0316 µM
[24] = second compound 1 µM, first compound 0.1 µM
[25] = second compound 3.16 µM, first compound 0.000316 µM
[26] = second compound 3.16 µM, first compound 0.001 µM
[27] = second compound 3.16 µM, first compound 0.00316 µM
[28] = second compound 3.16 µM, first compound 0.01 µM
[29] = second compound 3.16 µM, first compound 0.0316 µM
[30] = second compound 3.16 µM, first compound 0.1 µM
[31] = second compound 10 µM, first compound 0.000316 µM
[32] = second compound 10 µM, first compound 0.001 µM
[33] = second compound 10 µM, first compound 0.00316 µM
[34] = second compound 10 µM, first compound 0.01 µM
[35] = second compound 10 µM, first compound 0.0316 µM
[36] = second compound 10 µM, first compound 0.1 µM
[37] = second compound 0.0316 µM, first compound 0.316 µM
[38] = second compound 0.0316 µM, first compound 1 µM
[39] = second compound 0.0316 µM, first compound 3.16 µM
[40] = second compound 0.0316 µM, first compound 10 µM
[41] = second compound 0.1 µM, first compound 0.316 µM
[42] = second compound 0.1 µM, first compound 1 µM
[43] = second compound 0.1 µM, first compound 3.16 µM
[44] = second compound 0.1 µM, first compound 10 µM
[45] = second compound 0.316 µM, first compound 0.316 µM
[46] = second compound 0.316 µM, first compound 1 µM
[47] = second compound 0.316 µM, first compound 3.16 µM
[48] = second compound 0.316 µM, first compound 10 µM
[49] = second compound 1 µM, first compound 0.316 µM
[50] = second compound 1 µM, first compound 1 µM
[51] = second compound 1 µM, first compound 3.16 µM
[52] = second compound 1 µM, first compound 10 µM
[53] = second compound 3.16 µM, first compound 0.316 µM
[54] = second compound 3.16 µM, first compound 1 µM
[55] = second compound 3.16 µM, first compound 3.16 µM
[56] = second compound 3.16 µM, first compound 10 µM
[57] = second compound 10 µM, first compound 0.316 µM
[58] = second compound 10 µM, first compound 1 µM
[59] = second compound 10 µM, first compound 3.16 µM
[60] = second compound 10 µM, first compound 10 µM
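Also: spheroids exposed to agents for seven days before luminescence read.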
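For viability, T/C in this document: luminescent signal used as a stand-in for spheroid viability; percent viability relative to DMSO vehicle control wells taken as 100%.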

CC(=O)c1c(C)c2cnc(Nc3ccc(N4CCNCC4)cn3)nc2n(C2CCCC2)c1=O + CC(Nc1ncnc2nc[nH]c12)c1cc2cccc(Cl)c2c(=O)n1-c1ccccc1
< 7.00: pIC50 (second compound 0.0316 µM) | pIC50 (second compound 0.1 µM) | pIC50 (second compound 0.316 µM) | pIC50 (second compound 1 µM) | pIC50 (second compound 3.16 µM) | pIC50 (second compound 10 µM)
inactive: viability, T/C [1] 107% | viability, T/C [2] 96.8% | viability, T/C [3] 103% | viability, T/C [4] 113% | viability, T/C [5] 99.7% | viability, T/C [6] 122% | viability, T/C [7] 93% | viability, T/C [8] 91.9% | viability, T/C [9] 106% | viability, T/C [10] 101% | viability, T/C [11] 105% | viability, T/C [12] 111% | viability, T/C [13] 94.9% | viability, T/C [14] 102% | viability, T/C [15] 99.9% | viability, T/C [16] 103% | viability, T/C [17] 107% | viability, T/C [18] 119% | viability, T/C [19] 94.4% | viability, T/C [20] 103% | viability, T/C [21] 102% | viability, T/C [22] 104% | viability, T/C [23] 116% | viability, T/C [24] 109% | viability, T/C [25] 94.6% | viability, T/C [26] 116% | viability, T/C [27] 113% | viability, T/C [28] 103% | viability, T/C [29] 99.2% | viability, T/C [30] 110% | viability, T/C [31] 97.7% | viability, T/C [32] 99.8% | viability, T/C [33] 94.7% | viability, T/C [34] 89.5% | viability, T/C [35] 90.3% | viability, T/C [36] 83%

CC(C)n1nc(-c2ccc3oc(N)nc3c2)c2c(N)ncnc21 + CC(Nc1ncnc2nc[nH]c12)c1cc2cccc(Cl)c2c(=O)n1-c1ccccc1
< 7.00: pIC50 (second compound 0.0316 µM) | pIC50 (second compound 0.1 µM) | pIC50 (second compound 0.316 µM) | pIC50 (second compound 1 µM)
7.21: pIC50 (second compound 10 µM)
7.04: pIC50 (second compound 3.16 µM)
inactive: viability, T/C [1] 97.5% | viability, T/C [2] 102% | viability, T/C [3] 103% | viability, T/C [4] 101% | viability, T/C [5] 98.7% | viability, T/C [6] 62.4% | viability, T/C [7] 95.5% | viability, T/C [8] 107% | viability, T/C [9] 116% | viability, T/C [10] 107% | viability, T/C [11] 91.5% | viability, T/C [12] 69% | viability, T/C [13] 98.8% | viability, T/C [14] 101% | viability, T/C [15] 113% | viability, T/C [16] 109% | viability, T/C [17] 97.1% | viability, T/C [18] 58.7% | viability, T/C [19] 102% | viability, T/C [20] 111% | viability, T/C [21] 100% | viability, T/C [22] 103% | viability, T/C [23] 98.1% | viability, T/C [24] 62.2% | viability, T/C [25] 105% | viability, T/C [26] 111% | viability, T/C [27] 96.3% | viability, T/C [28] 97.1% | viability, T/C [29] 85.3% | viability, T/C [30] 46.6% | viability, T/C [31] 93.2% | viability, T/C [32] 91.3% | viability, T/C [33] 95.1% | viability, T/C [34] 79.9% | viability, T/C [35] 68.1% | viability, T/C [36] 37.6%

CC1(C)CCC(CN2CCN(c3ccc(C(=O)NS(=O)(=O)c4ccc(NCC5CCOCC5)c([N+](=O)[O-])c4)c(Oc4cnc5[nH]ccc5c4)c3)CC2)=C(c2ccc(Cl)cc2)C1 + CC(Nc1ncnc2nc[nH]c12)c1cc2cccc(Cl)c2c(=O)n1-c1ccccc1
5.11: pIC50 (second compound 0.0316 µM)
5.10: pIC50 (second compound 1 µM)
5.07: pIC50 (second compound 3.16 µM)
inactive: viability, T/C [5] 112% | viability, T/C [6] 94.8% | viability, T/C [37] 116% | viability, T/C [38] 96.7% | viability, T/C [39] 106% | viability, T/C [40] 34.5% | viability, T/C [11] 103% | viability, T/C [12] 92.4% | viability, T/C [41] 91.4% | viability, T/C [42] 90.1% | viability, T/C [43] 111% | viability, T/C [44] 32.5% | viability, T/C [17] 110% | viability, T/C [18] 114% | viability, T/C [45] 108% | viability, T/C [46] 106% | viability, T/C [47] 117% | viability, T/C [48] 41.6% | viability, T/C [23] 97.9% | viability, T/C [24] 111% | viability, T/C [49] 112% | viability, T/C [50] 99.2% | viability, T/C [51] 117% | viability, T/C [52] 35% | viability, T/C [29] 109% | viability, T/C [30] 97.2% | viability, T/C [53] 102% | viability, T/C [54] 111% | viability, T/C [55] 125% | viability, T/C [56] 40.1% | viability, T/C [35] 88.6% | viability, T/C [36] 95.3% | viability, T/C [57] 94.6% | viability, T/C [58] 93.8% | viability, T/C [59] 108% | viability, T/C [60] 45.3%
5.06: pIC50 (second compound 0.316 µM)
5.13: pIC50 (second compound 0.1 µM)
5.05: pIC50 (second compound 10 µM)

CCCS(=O)(=O)Nc1ccc(F)c(C(=O)c2c[nH]c3ncc(-c4ccc(Cl)cc4)cc23)c1F + CC(Nc1ncnc2nc[nH]c12)c1cc2cccc(Cl)c2c(=O)n1-c1ccccc1
active: viability, T/C [40] 7.94% | viability, T/C [44] 6.92% | viability, T/C [48] 7.81% | viability, T/C [52] 7.61% | viability, T/C [56] 9.32%
5.29: pIC50 (second compound 0.316 µM)
5.33: pIC50 (second compound 3.16 µM)
5.31: pIC50 (second compound 0.0316 µM) | pIC50 (second compound 0.1 µM)
5.32: pIC50 (second compound 1 µM)
inactive: viability, T/C [5] 102% | viability, T/C [6] 101% | viability, T/C [37] 89.4% | viability, T/C [38] 98% | viability, T/C [39] 76% | viability, T/C [11] 102% | viability, T/C [12] 104% | viability, T/C [41] 94.1% | viability, T/C [42] 90.5% | viability, T/C [43] 78.9% | viability, T/C [17] 102% | viability, T/C [18] 95.2% | viability, T/C [45] 108% | viability, T/C [46] 91.7% | viability, T/C [47] 80.4% | viability, T/C [23] 99.9% | viability, T/C [24] 103% | viability, T/C [49] 91.5% | viability, T/C [50] 84% | viability, T/C [51] 78.2% | viability, T/C [29] 100% | viability, T/C [30] 90.5% | viability, T/C [53] 97.1% | viability, T/C [54] 81% | viability, T/C [55] 74.2% | viability, T/C [35] 97.4% | viability, T/C [36] 74.6% | viability, T/C [57] 73.7% | viability, T/C [58] 60.5% | viability, T/C [59] 56% | viability, T/C [60] 11.7%
5.61: pIC50 (second compound 10 µM)

C[C@@H](NC(=O)c1ncnc(N)c1Cl)c1ncc(C(=O)Nc2cc(C(F)(F)F)c(Cl)cn2)s1 + CC(Nc1ncnc2nc[nH]c12)c1cc2cccc(Cl)c2c(=O)n1-c1ccccc1
< 5.00: pIC50 (second compound 0.0316 µM) | pIC50 (second compound 0.1 µM) | pIC50 (second compound 0.316 µM) | pIC50 (second compound 1 µM) | pIC50 (second compound 3.16 µM) | pIC50 (second compound 10 µM)
inactive: viability, T/C [5] 115% | viability, T/C [6] 100% | viability, T/C [37] 107% | viability, T/C [38] 100% | viability, T/C [39] 99.8% | viability, T/C [40] 94.4% | viability, T/C [11] 100% | viability, T/C [12] 101% | viability, T/C [41] 104% | viability, T/C [42] 107% | viability, T/C [43] 101% | viability, T/C [44] 107% | viability, T/C [17] 96.8% | viability, T/C [18] 105% | viability, T/C [45] 92.5% | viability, T/C [46] 96.1% | viability, T/C [47] 98.8% | viability, T/C [48] 97.6% | viability, T/C [23] 99.2% | viability, T/C [24] 94.4% | viability, T/C [49] 110% | viability, T/C [50] 92.8% | viability, T/C [51] 94.8% | viability, T/C [52] 83% | viability, T/C [29] 97.1% | viability, T/C [30] 102% | viability, T/C [53] 104% | viability, T/C [54] 94.3% | viability, T/C [55] 93.8% | viability, T/C [56] 73.3% | viability, T/C [35] 100% | viability, T/C [36] 94.7% | viability, T/C [57] 96.3% | viability, T/C [58] 83% | viability, T/C [59] 82.2% | viability, T/C [60] 61%
